Assay results reported in ChEMBL document CHEMBL4251615, “Discovery of anilino-furo[2,3-d]pyrimidine derivatives as dual inhibitors of EGFR/HER2 tyrosine kinase and their anticancer activity” (Eur J Med Chem, 2018).

Key:
[1] = biological target: Epidermal growth factor receptor (Homo sapiens, UniProt P00533); assay: Inhibition of recombinant human C-terminal His/N-terminal GST-tagged EGFR (668 to 1210 residues) expressed in baculovirus infected Sf9 cells at 10 uM using biotin-labeled poly[Glu:Tyr] (4:1) as substrate after 30 mins by Kinase-Glo plus luminescence assay relative to control
[2] = biological target: Receptor tyrosine-protein kinase erbB-2 (Homo sapiens) (UniProt P04626); assay: Inhibition of recombinant human N-terminal GST-tagged HER2 (679 to 1255 residues) expressed in baculovirus infected Sf9 cells at 10 uM using poly[Glu:Tyr] (4:1) as substrate after 40 mins by Kinase-Glo plus luminescence assay relative to control
HL-60(TB) = assay: Growth inhibition of human HL-60(TB) cells assessed as cell growth at 10 uM incubated for 48 hrs by sulforhodamine B assay relative to control; assay type: functional; conditions: HL-60, 48 h, read-out: Activity
HOP-92 = assay: Growth inhibition of human HOP92 cells assessed as cell growth at 10 uM incubated for 48 hrs by sulforhodamine B assay relative to control; assay type: functional; conditions: HOP-92, 48 h, read-out: Activity
NCI-H226 = assay: Growth inhibition of human NCI-H226 cells assessed as cell growth at 10 uM incubated for 48 hrs by sulforhodamine B assay relative to control; assay type: functional; conditions: NCI-H226, 48 h, read-out: Activity
NCI-H322M = assay: Growth inhibition of human NCI-H322M cells assessed as cell growth at 10 uM incubated for 48 hrs by sulforhodamine B assay relative to control; assay type: functional; conditions: read-out: Activity
NCI-H460 = assay: Growth inhibition of human NCI-H460 cells assessed as cell growth at 10 uM incubated for 48 hrs by sulforhodamine B assay relative to control; assay type: functional; conditions: NCI-H460, 48 h, read-out: Activity
HCC 2998 = assay: Growth inhibition of human HCC2998 cells assessed as cell growth at 10 uM incubated for 48 hrs by sulforhodamine B assay relative to control; assay type: functional; conditions: HCC 2998, 48 h, read-out: Activity
HCT-116 = assay: Growth inhibition of human HCT116 cells assessed as cell growth at 10 uM incubated for 48 hrs by sulforhodamine B assay relative to control; assay type: functional; conditions: HCT-116, 48 h, read-out: Activity
HT-29 = assay: Growth inhibition of human HT-29 cells assessed as cell growth at 10 uM incubated for 48 hrs by sulforhodamine B assay relative to control; assay type: functional; conditions: HT-29, 48 h, read-out: Activity
KM12 = assay: Growth inhibition of human KM12 cells assessed as cell growth at 10 uM incubated for 48 hrs by sulforhodamine B assay relative to control; assay type: functional; conditions: KM12, 48 h, read-out: Activity
SNB-75 = assay: Growth inhibition of human SNB75 cells assessed as cell growth at 10 uM incubated for 48 hrs by sulforhodamine B assay relative to control; assay type: functional; conditions: SNB-75, 48 h, read-out: Activity
U-251 = assay: Growth inhibition of human U251 cells assessed as cell growth at 10 uM incubated for 48 hrs by sulforhodamine B assay relative to control; assay type: functional; conditions: U-251, 48 h, read-out: Activity
M14 = assay: Growth inhibition of human M14 cells assessed as cell growth at 10 uM incubated for 48 hrs by sulforhodamine B assay relative to control; assay type: functional; conditions: M14, 48 h, read-out: Activity
SK-MEL-2 = assay: Growth inhibition of human SK-MEL-2 cells assessed as cell growth at 10 uM incubated for 48 hrs by sulforhodamine B assay relative to control; assay type: functional; conditions: SK-MEL-2, 48 h, read-out: Activity
UACC-62 = assay: Growth inhibition of human UACC62 cells assessed as cell growth at 10 uM incubated for 48 hrs by sulforhodamine B assay relative to control; assay type: functional; conditions: UACC-62, 48 h, read-out: Activity
OVCAR-8 = assay: Growth inhibition of human OVCAR8 cells assessed as cell growth at 10 uM incubated for 48 hrs by sulforhodamine B assay relative to control; assay type: functional; conditions: OVCAR-8, 48 h, read-out: Activity
SK-OV-3 = assay: Growth inhibition of human SKOV3 cells assessed as cell growth at 10 uM incubated for 48 hrs by sulforhodamine B assay relative to control; assay type: functional; conditions: SK-OV-3, 48 h, read-out: Activity
A498 = assay: Growth inhibition of human A498 cells assessed as cell growth at 10 uM incubated for 48 hrs by sulforhodamine B assay relative to control; assay type: functional; conditions: A498, 48 h, read-out: Activity
ACHN = assay: Growth inhibition of human ACHN cells assessed as cell growth at 10 uM incubated for 48 hrs by sulforhodamine B assay relative to control; assay type: functional; conditions: read-out: Activity
SN12C = assay: Growth inhibition of human SN12C cells assessed as cell growth at 10 uM incubated for 48 hrs by sulforhodamine B assay relative to control; assay type: functional; conditions: read-out: Activity
TK-10 = assay: Growth inhibition of human TK10 cells assessed as cell growth at 10 uM incubated for 48 hrs by sulforhodamine B assay relative to control; assay type: functional; conditions: TK-10, 48 h, read-out: Activity
DU-145 = assay: Growth inhibition of human DU145 cells assessed as cell growth at 10 uM incubated for 48 hrs by sulforhodamine B assay relative to control; assay type: functional; conditions: DU-145, 48 h, read-out: Activity
MDA-MB-231 = assay: Growth inhibition of human MDA-MB-231 cells assessed as cell growth at 10 uM incubated for 48 hrs by sulforhodamine B assay relative to control; assay type: functional; conditions: MDA-MB-231, 48 h, read-out: Activity
Hs-578T = assay: Growth inhibition of human Hs 578T cells assessed as cell growth at 10 uM incubated for 48 hrs by sulforhodamine B assay relative to control; assay type: functional; conditions: read-out: Activity
BT-549 = assay: Growth inhibition of human BT549 cells assessed as cell growth at 10 uM incubated for 48 hrs by sulforhodamine B assay relative to control; assay type: functional; conditions: BT-549, 48 h, read-out: Activity
MDA-MB-468 = assay: Growth inhibition of human MDA-MB-468 cells assessed as cell growth at 10 uM incubated for 48 hrs by sulforhodamine B assay relative to control; assay type: functional; conditions: MDA-MB-468, 48 h, read-out: Activity

Chain of Epidermal growth factor receptor (P00533 whole entry, the tested form may be a part): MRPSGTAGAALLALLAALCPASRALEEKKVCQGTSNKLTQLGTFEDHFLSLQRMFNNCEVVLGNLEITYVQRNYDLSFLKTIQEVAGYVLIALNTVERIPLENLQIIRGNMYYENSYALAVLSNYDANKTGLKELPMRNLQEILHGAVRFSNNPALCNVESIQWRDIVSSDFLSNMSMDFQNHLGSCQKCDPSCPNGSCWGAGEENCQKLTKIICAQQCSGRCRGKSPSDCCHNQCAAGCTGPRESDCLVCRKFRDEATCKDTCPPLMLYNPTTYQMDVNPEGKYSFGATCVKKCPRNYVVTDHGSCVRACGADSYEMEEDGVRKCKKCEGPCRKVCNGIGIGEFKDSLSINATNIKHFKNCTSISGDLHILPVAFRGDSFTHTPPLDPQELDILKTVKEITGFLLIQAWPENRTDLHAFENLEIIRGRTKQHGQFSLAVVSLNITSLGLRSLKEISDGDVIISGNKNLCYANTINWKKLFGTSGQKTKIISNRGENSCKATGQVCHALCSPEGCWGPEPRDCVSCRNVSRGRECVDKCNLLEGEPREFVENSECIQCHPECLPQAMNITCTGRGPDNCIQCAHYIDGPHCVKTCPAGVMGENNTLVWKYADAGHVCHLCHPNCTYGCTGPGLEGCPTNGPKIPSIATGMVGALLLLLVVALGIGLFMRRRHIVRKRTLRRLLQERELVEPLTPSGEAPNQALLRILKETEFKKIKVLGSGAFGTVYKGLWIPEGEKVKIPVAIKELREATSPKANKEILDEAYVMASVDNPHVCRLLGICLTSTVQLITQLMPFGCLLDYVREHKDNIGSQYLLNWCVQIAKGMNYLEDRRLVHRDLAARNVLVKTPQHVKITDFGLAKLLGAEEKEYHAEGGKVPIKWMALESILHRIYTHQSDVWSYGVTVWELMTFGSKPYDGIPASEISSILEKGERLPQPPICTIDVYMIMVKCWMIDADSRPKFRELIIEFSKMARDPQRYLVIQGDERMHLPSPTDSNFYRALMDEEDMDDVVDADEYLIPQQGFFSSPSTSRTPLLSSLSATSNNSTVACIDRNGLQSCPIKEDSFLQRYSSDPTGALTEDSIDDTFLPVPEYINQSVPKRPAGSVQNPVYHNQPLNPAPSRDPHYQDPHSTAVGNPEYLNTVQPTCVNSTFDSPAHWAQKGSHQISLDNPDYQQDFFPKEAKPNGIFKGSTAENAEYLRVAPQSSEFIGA
Chain of Receptor tyrosine-protein kinase erbB-2 (Homo sapiens) (P04626 whole entry, the tested form may be a part): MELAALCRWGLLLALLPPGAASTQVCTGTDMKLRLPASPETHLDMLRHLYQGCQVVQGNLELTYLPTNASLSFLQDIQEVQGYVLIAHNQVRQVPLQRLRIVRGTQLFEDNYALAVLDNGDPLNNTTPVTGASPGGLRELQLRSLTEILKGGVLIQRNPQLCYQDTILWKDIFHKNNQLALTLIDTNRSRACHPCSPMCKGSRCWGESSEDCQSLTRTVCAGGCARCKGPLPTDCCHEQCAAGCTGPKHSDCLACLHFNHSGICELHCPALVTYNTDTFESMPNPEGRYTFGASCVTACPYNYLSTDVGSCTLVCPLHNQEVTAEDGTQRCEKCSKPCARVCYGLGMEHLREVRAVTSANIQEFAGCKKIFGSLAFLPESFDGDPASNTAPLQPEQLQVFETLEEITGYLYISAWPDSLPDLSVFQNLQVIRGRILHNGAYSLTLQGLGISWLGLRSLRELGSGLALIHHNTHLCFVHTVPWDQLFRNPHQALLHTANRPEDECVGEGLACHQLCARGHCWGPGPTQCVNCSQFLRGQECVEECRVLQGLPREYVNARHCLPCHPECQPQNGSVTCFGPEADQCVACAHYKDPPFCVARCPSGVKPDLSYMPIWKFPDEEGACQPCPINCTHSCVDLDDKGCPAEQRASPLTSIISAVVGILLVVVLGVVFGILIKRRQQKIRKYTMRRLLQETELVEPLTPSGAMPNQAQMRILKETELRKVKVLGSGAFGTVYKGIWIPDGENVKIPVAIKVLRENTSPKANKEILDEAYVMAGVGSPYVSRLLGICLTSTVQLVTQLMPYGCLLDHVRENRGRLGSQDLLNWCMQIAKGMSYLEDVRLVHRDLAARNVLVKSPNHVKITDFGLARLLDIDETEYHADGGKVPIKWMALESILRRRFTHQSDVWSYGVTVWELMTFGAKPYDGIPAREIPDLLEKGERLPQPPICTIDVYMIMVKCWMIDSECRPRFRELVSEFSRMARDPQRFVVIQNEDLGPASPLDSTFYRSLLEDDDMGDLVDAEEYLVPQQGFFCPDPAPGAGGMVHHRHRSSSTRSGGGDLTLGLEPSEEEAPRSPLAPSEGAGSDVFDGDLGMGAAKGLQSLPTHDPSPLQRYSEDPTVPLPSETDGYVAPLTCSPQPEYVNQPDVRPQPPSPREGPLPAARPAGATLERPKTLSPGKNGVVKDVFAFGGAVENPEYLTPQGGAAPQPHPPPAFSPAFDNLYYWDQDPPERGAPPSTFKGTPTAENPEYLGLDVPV

| SMILES | inhibition [1] [%] | inhibition [2] [%] | growth at 10 µM (HL-60(TB)) [%] | growth at 10 µM (HOP-92) [%] | growth at 10 µM (NCI-H226) [%] | growth at 10 µM (NCI-H322M) [%] | growth at 10 µM (NCI-H460) [%] | growth at 10 µM (HCC 2998) [%] | growth at 10 µM (HCT-116) [%] | growth at 10 µM (HT-29) [%] | growth at 10 µM (KM12) [%] | growth at 10 µM (SNB-75) [%] | growth at 10 µM (U-251) [%] | growth at 10 µM (M14) [%] | growth at 10 µM (SK-MEL-2) [%] | growth at 10 µM (UACC-62) [%] | growth at 10 µM (OVCAR-8) [%] | growth at 10 µM (SK-OV-3) [%] | growth at 10 µM (A498) [%] | growth at 10 µM (ACHN) [%] | also measured |
| --- | --- | --- | --- | --- | --- | --- | --- | --- | --- | --- | --- | --- | --- | --- | --- | --- | --- | --- | --- | --- | --- |
| CCOC(=O)c1c(C)oc2ncnc(Nc3ccc(OCc4cccc(C)c4)cc3)c12 | 6 | 16 | 108 | 104 | 101 | 94 | 95.5 | 114 | 90.6 | 87.5 | 96.1 | 106 | 96.4 | 86.5 | 100 | 80.7 | 106 | 96.7 | 84.4 | 98.1 | growth at 10 µM (SN12C): 88.6%; growth at 10 µM (TK-10): 94.7%; growth at 10 µM (DU-145): 101%; growth at 10 µM (MDA-MB-231): 88.6%; growth at 10 µM (Hs-578T): 102%; growth at 10 µM (BT-549): 106%; growth at 10 µM (MDA-MB-468): 106% |
| CCOC(=O)c1c(C)oc2ncnc(Nc3ccc(OCc4ccc(Cl)c(Cl)c4)cc3)c12 | 0 | 13 | 96.6 | 116 | 94.4 | 97.9 | 102 | 109 | 94.5 | 99.7 | 102 | 102 | 104 | 101 | 103 | 93.2 | 113 | 98.9 | 92.3 | 102 | growth at 10 µM (SN12C): 93.3%; growth at 10 µM (TK-10): 88.5%; growth at 10 µM (DU-145): 108%; growth at 10 µM (MDA-MB-231): 84.3%; growth at 10 µM (Hs-578T): 104%; growth at 10 µM (BT-549): 94.9%; growth at 10 µM (MDA-MB-468): 96.5% |
| CCOC(=O)c1c(C)oc2ncnc(Nc3ccc(OCc4cccc(F)c4)cc3)c12 | 34 | 19 | 109 | 104 | 87.6 | 101 | 68.4 | 108 | 78.1 | 92.7 | 92.9 | 119 | 96.1 | 97.5 | 102 | 80.3 | 97.6 | 104 | 91.6 | 62.1 | growth at 10 µM (SN12C): 90.3%; growth at 10 µM (TK-10): 82.7%; growth at 10 µM (DU-145): 94.9%; growth at 10 µM (MDA-MB-231): 101%; growth at 10 µM (Hs-578T): 87.7%; growth at 10 µM (BT-549): 100%; growth at 10 µM (MDA-MB-468): 90.6% |
| CCOC(=O)c1c(C)oc2ncnc(Nc3ccc(OCc4ccc(Cl)cc4)cc3)c12 | 6 | 18 | 91.7 | 107 | 98.8 | 107 | 107 | 108 | 98.7 | 94.4 | 101 | 116 | 107 | 102 | 105 | 87.7 | 107 | 88 | 91.7 | 101 | growth at 10 µM (SN12C): 97.8%; growth at 10 µM (TK-10): 87.4%; growth at 10 µM (DU-145): 106%; growth at 10 µM (MDA-MB-231): 101%; growth at 10 µM (Hs-578T): 111%; growth at 10 µM (BT-549): 96.1%; growth at 10 µM (MDA-MB-468): 89.8% |
| Cc1oc2ncnc(Nc3ccc(OCc4cccc(F)c4)c(Cl)c3)c2c1C(=O)NCCO | 32 | 6 | 42.4 | 41.9 | 40.8 | 86.3 | 34.7 | 79.1 | 64.9 | 73 | 68.9 | 40.5 | 48.1 | 66.9 | 78.5 | 55 | 42.8 | 74.2 | 81.6 | 49.7 | growth at 10 µM (SN12C): 45.3%; growth at 10 µM (TK-10): 74.7%; growth at 10 µM (DU-145): 61.7%; growth at 10 µM (MDA-MB-231): 26%; growth at 10 µM (Hs-578T): 46.1%; growth at 10 µM (BT-549): 61.7%; growth at 10 µM (MDA-MB-468): 57.4% |
